Test results reported in US20070135383A1, “Phospholipase inhibitors, including multi-valent phospholipase inhibitors, and use thereof, including as lumen-localized phospholipase inhibitors” (priority 2005, published 2007).
Like-named read-outs stand apart in the source and are kept apart here.

Assays:
Assay in all cases: Fluorimetric PPyrPM assay for group 1B PLA2 inhibition (Example 12)
Format in all cases: biochemical
[1] = target: T1, mouse group 1B PLA2 (mps PLA2) (Mus musculus, UniProt Q9Z0Y2); conditions: mouse pancreas secreted PLA2; for IC50: read-out: ILYPSA IC50 mps PLA2; for inhibition at 15 µM: read-out: ILYPSA % inhibition at 15 μM mps PLA2
T1 construct: made in house; host or cells: E. coli
T1 sequence (Q9Z0Y2 23-146): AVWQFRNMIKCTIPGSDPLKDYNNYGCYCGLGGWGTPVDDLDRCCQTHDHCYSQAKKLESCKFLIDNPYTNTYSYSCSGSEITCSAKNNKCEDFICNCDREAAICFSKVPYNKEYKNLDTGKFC
From the text: (§1) In this example, a fluorimetric assay procedure was used to evaluate the indole and indole-related compounds of the invention as inhibitors of group 1B phospholipase A2 (PLA2) from human, mouse and porcine. A description of this assay is found in articles: Leslie, C C and Gelb, M H (2004) Methods in Molecular Biology “Assaying phospholipase A2 activity”, 284:229-242; Singer, A G, et al. (2002) Journal of Biological Chemistry “Interfacial kinetic and binding properties of the complete set of human and mouse groups I, II, V, X, and XII secreted phospholipases A2”, 277:48535-48549, which are incorporated herein as references.
(§2) In general, this assay used a phosphatidylmethanol substrate with a pyrene fluorophore on the terminal end of the sn-2 fatty acyl chain. Without being bound by theory, close proximity of the pyrenes from neighboring phospholipids in a phospholipid vesicle caused the spectral properties to change relative to that of monomeric pyrene. Bovine serum albumin was present in the aqueous phase and captured the pyrene fatty acid when it is liberated from the glycerol backbone owing to the PLA2-catalyzed reaction. However, a potent inhibitor can inhibit the liberation of pyrene fatty acid from the glycerol backbone. […] The effect of a given inhibitor and inhibitor concentration on human, mouse and porcine phospholipase was determined.
(§3) Recombinant human and mouse group 1B PLA2 were cloned and expressed in E. coli as insoluble inclusion bodies. The inclusion bodies were isolated and purified by sonicating cell pellet in lysis buffer (50 mM Tris-HCl pH 7.0, 250 mM NaCl, 0.5% Triton 100), centrifugation at 12,000×g, and washing three times in washing buffer (20 mM Tris-HCl pH 7.0, 250 mM NaCl, 0.5% Triton 100). Then the inclusion bodies were dissolved in dissolving buffer (50 mM Tris-HCl pH 7.0, 250 mM NaCl, 6 M Guanidine-HCl, 1 mM DTT) and dialyzed four times against 10 volumes of refolding buffer (20 mM Tris-HCl pH 7.0, 250 mM NaCl, 0.5M Guanidine-HCl, 5% (w/w) Glycerol, 2 mM reduced glutathione and 0.4 mM oxidized glutathione) at 4° C. The correctly refolded proteins were concentrated using Amicon Stirred cell under nitrogen pressure (<70 psi) and dialyzed against 10 volumes of 50 mM Tris-HCl pH 7.0, 250 mM NaCl and 5% (w/w) glycerol. Human and mouse group 1B PLA2 were further purified by High S ion exchange and gel filtration columns.
(§4) The following reagents and equipments were obtained from commercial vendors: • 1. Porcine group 1B phospholipase A2 • 2. 1-hexadecanoyl-2-(1-pyrenedecanoyl)-sn-glycero-3-phosphomethanol (PPyrPM) • 3. Bovine serum albumin (BSA, fatty acid free) • 4. 2-Amino-2-(hydroxymethyl)-1,3-propanediol, hydrochloride (Tris-HCl) • 5. Calcium chloride • 6. Potassium chloride • 7. Solvents: DMSO, toluene, isopropanol, ethanol • 8. Molecular Devices SPECTRAmax microplate spectrofluorometer • 9. Costar 96 well black wall/clear bottom plate
(§5) The following reagents were prepared: • 10. PPyrPM stock solution (1 mg/ml) in toluene:isopropanol (1:1) • 11. ILY104 inhibitor stock solution (10 mM) in DMSO • 12. 3% (w/v) bovine serum albumin (BSA) • 13. Stock buffer: 50 mM Tris-HCl, pH 8.0, 50 mM KCl and 1 mM CaCl2
(§6) The following procedure was performed to evaluate the inhibitory potency of the evaluated compounds. • 14. An assay buffer was prepared by adding 3 ml 3% BSA to 47 ml stock buffer. • 15. Solution A was prepared by adding serially diluted inhibitors to the assay buffer. Inhibitors were three-fold diluted in stock buffer in a series of 8 from 15 uM. • 16. Solution B was prepared by adding human, mouse or porcine PLA2 to the assay buffer. This solution was prepared immediately before use to minimize enzyme activity loss. • 17. Solution C was prepared by adding 30 ul PPyrPM stock solution to 90 ul ethanol, and then all 120 ul of PPyrPM solution was transferred drop-wise over approximately 1 min to the continuously stirring 8.82 ml assay buffer to form a final concentration of 4.2 uM PPyrPM vesicle solution. • 18. […]

[2] = target: T2, human group 1B PLA2 (hps PLA2) (Homo sapiens, UniProt P04054); conditions: for inhibition at 15 µM: read-out: ILYPSA % inhibition at 15 μM hps PLA2
T2 construct: made in house; host or cells: E. coli
T2 sequence (P04054 23-148): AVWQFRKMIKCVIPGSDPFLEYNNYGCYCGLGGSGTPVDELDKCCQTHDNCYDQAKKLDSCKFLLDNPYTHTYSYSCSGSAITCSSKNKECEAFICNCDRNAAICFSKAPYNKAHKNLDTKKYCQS
From the text: as §1, §2, §3, §4, §5, §6

[3] = target: T3, porcine group 1B PLA2 (pps PLA2) (Sus scrofa, UniProt P00592); conditions: porcine pancreas secreted PLA2; for IC50: read-out: ILYPSA IC50 pps PLA2; for inhibition at 15 µM: read-out: ILYPSA % inhibition at 15 μM pps PLA2
T3 construct: purchased
T3 sequence (P00592 23-146): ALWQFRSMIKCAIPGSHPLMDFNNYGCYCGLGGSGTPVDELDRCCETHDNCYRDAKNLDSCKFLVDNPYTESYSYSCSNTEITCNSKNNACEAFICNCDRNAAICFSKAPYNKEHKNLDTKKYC
From the text: as §1, §2, §4, §5
The following procedure was performed to evaluate the inhibitory potency of the evaluated compounds. • 14. An assay buffer was prepared by adding 3 ml 3% BSA to 47 ml stock buffer. • 15. Solution A was prepared by adding serially diluted inhibitors to the assay buffer. Inhibitors were three-fold diluted in stock buffer in a series of 8 from 15 uM. • 16. Solution B was prepared by adding human, mouse or porcine PLA2 to the assay buffer. This solution was prepared immediately before use to minimize enzyme activity loss. • 17. Solution C was prepared by adding 30 ul PPyrPM stock solution to 90 ul ethanol, and then all 120 ul of PPyrPM solution was transferred drop-wise over approximately 1 min to the continuously stirring 8.82 ml assay buffer to form a final concentration of 4.2 uM PPyrPM vesicle solution. • 18. The SPECTRAmax microplate spectrofluorometer was set at 37° C. • 19. 100 ul of solution A was added to each inhibition assay well of a costar 96 well black wall/clear bottom plate • 20. 100 ul of solution B was added to each inhibition assay well of a costar 96 well black wall/clear bottom plate. • 21. 100 ul of solution C was added to each inhibition assay well of a costar 96 well black wall/clear bottom plate. • 22. The plate was incubated inside the spectrofluorometer chamber for 3 min. • 23. The fluorescence was read using an excitation of 342 nm and an emission of 395 nm.
Evaluated compounds were tested in duplicate and their values were averaged to plot the inhibition curve and calculate the IC50. Compared to uninhibited controls, lower fluorescent signal at an emission of 395 nm in test reactions evidenced inhibition of PLA2. […] Compounds initially found to be active were repeated to confirm their inhibitory activity. […]

[4] = human pancreas secreted PLA2, read-out: ILYPSA IC50 hps PLA2

Compound: Cc1c(C(=O)C(N)=O)c2c(OCC(=O)O)ccnc2n1Cc1ccccc1 [ILY-VII-1, 2-(1-Benzyl-4-yloxyacetic acid-2-methyl-1H-pyrrolo[2,3-b]pyridin-3-yl)-2-oxoacetamide]
- IC50 [1]: 2140 nM
- IC50 [2, 4]: 13700 nM
- IC50 [3]: 60 nM

Compound: Cc1c(C(=O)C(N)=O)c2c(OCC(=O)O)ccc([N+](=O)[O-])c2n1Cc1ccccc1 [ILY-IV-29]
- IC50 [1]: 330 nM
- IC50 [2, 4]: 1290 nM
- IC50 [3]: 20 nM

Compound: Cc1c(C(=O)C(N)=O)c2c(OC(C(=O)O)C(C)C)cccc2n1Cc1ccccc1 (stereo not drawn) [ILY-IV-22, 2-(3-Aminooxalyl-1-benzyl-2-methyl-1H-indol-4-yloxy)-3-methyl-butyric acid]
- IC50 [1]: < 20 nM
- IC50 [2, 4]: 70 nM
- IC50 [3]: < 20 nM

Compound: Cc1c(C(=O)C(N)=O)c2c(OCC(=O)O)ccc(NS(C)(=O)=O)c2n1Cc1ccccc1 [ILY-IV-37]
- IC50 [1]: 1020 nM
- IC50 [2, 4]: 3480 nM
- IC50 [3]: 280 nM

Compound: Cc1c(C(=O)C(N)=O)c2c(OCC(=O)O)cccc2n1CCCCCCCCCCCCNCCCCCCCCCCCCn1c(C)c(C(=O)C(N)=O)c2c(OCC(=O)O)cccc21 [ILY-V-45, (3-Aminooxalyl-1-{12-[12-(3-aminooxalyl-4-carboxymethoxy-2-methyl-indol-1-yl)-dodecylamino]-dodecyl}-2-methyl-1H-indol-4-yloxy)-acetic acid]
- IC50 [1]: 70 nM
- IC50 [2, 4]: 120 nM
- IC50 [3]: 40 nM

Compound: Cc1c(C(=O)C(N)=O)c2c(OCC(=O)NC(CC(=O)O)C(=O)O)nccc2n1Cc1ccccc1 (stereo not drawn) [ILY-II-12, 2-(2-(3-(2-amino-2-oxoacetyl)-1-benzyl-2-methyl-1H-pyrrolo[3,2-c]pyridin-4-yloxy)acetamido)succinic acid]
- inhibition at 15 µM [1]: 35.7%
- inhibition at 15 µM ([2]; human pancreas secreted PLA2): 16.6%
- IC50 [3]: 3710 nM

Compound: Cc1c(C(=O)C(N)=O)c2c(OC(C(N)=O)C(C)C)cccc2n1Cc1ccccc1 (stereo not drawn) [ILY-IV-45, 2-(3-(2-amino-2-oxoacetyl)-1-benzyl-2-methyl-1H-indol-4-yloxy)-3-methylbutanamide]
- inhibition at 15 µM [1]: 65.5%
- inhibition at 15 µM ([2]; human pancreas secreted PLA2): 74%
- IC50 [3]: 1030 nM

Compound: Cc1c(C(=O)C(N)=O)c2c(OCC(=O)O)cccc2n1CCCCCCCCCCCCSSCCCCCCCCCCCCn1c(C)c(C(=O)C(N)=O)c2c(OCC(=O)O)cccc21 [ILY-V-28, 2,2′-(1,1′-(12,12′-disulfanediylbis(dodecane-12,1-diyl))bis(3-(2-amino-2-oxoacetyl)-2-methyl-1H-indole-4,1-diyl))bis(oxy)diacetic acid]
- IC50 [1]: 1000 nM
- IC50 [2, 4]: 600 nM
- IC50 [3]: 730 nM

Compound: Cc1c(C(=O)C(N)=O)c2c(OCC(=O)O)ccc(Br)c2n1Cc1ccccc1 [ILY-IV-9, (3-Aminooxalyl-1-benzyl-7-bromo-2-methyl-1H-indol-4-yloxy)-acetic acid]
- IC50 [1]: 360 nM
- IC50 [2, 4]: 540 nM
- IC50 [3]: 40 nM

Compound: Cc1c(C(=O)C(N)=O)c2c(OC(F)C(=O)O)cccc2n1Cc1ccccc1 (stereo not drawn) [ILY-IV-24, (3-Aminooxalyl-1-benzyl-2-methyl-1H-indol-4-yloxy)-fluoro-acetic acid]
- inhibition at 15 µM [1]: 63.7%
- inhibition at 15 µM ([2]; human pancreas secreted PLA2): 52.4%
- IC50 [3]: 1420 nM

Compound: Cc1c(C(=O)C(N)=O)c2c(OC(CCC(=O)O)C(=O)O)cccc2n1Cc1ccccc1 (stereo not drawn) [ILY-IV-33, 2-(3-Aminooxalyl-1-benzyl-2-methyl-1H-indol-4-yloxy)-pentanedioic acid]
- inhibition at 15 µM [1]: 50.3%
- inhibition at 15 µM ([2]; human pancreas secreted PLA2): 35.9%
- IC50 [3]: 3760 nM

Compound: CCCCCCCCn1c(C)c(C(=O)C(N)=O)c2c(OCC(=O)O)nccc21 [ILY-II-8, (3-Aminooxalyl-2-methyl-1-octyl-1H-pyrrolo[3,2-c]pyridin-4-yloxy)-acetic acid]
- IC50 [1]: 120 nM
- IC50 [2, 4]: 270 nM
- IC50 [3]: 80 nM

Compound: Cc1c(C(=O)C(N)=O)c2c(OCC(=O)O)cccc2n1Cc1ccc2ccccc2c1 [ILY-V-9]
- IC50 [1]: 710 nM
- IC50 [2, 4]: 2110 nM
- IC50 [3]: 60 nM

Compound: COC(=O)C(Oc1cccc2c1c(C(=O)C(N)=O)c(C)n2Cc1ccccc1)C(=O)O (stereo not drawn) [ILY-IV-59]
- inhibition at 15 µM [1]: 35.7%
- inhibition at 15 µM ([2]; human pancreas secreted PLA2): 10.2%
- inhibition at 15 µM [3]: 56.8%

Compound: Cc1c(C(=O)C(N)=O)c2c(OCC(=O)O)cccc2n1CCCCCCCCCCCCOc1ccccc1OCCCCCCCCCCCCn1c(C)c(C(=O)C(N)=O)c2c(OCC(=O)O)cccc21 [ILY-V-27, [3-Aminooxalyl-1-(12-{2-[12-(3-aminooxalyl-4-carboxymethoxy-2-methyl-indol-1-yl)-dodecyloxy]-phenoxy}-dodecyl)-2-methyl-1H-indol-4-yloxy]-acetic acid]
- IC50 [1]: 200 nM
- IC50 [2, 4]: 150 nM
- IC50 [3]: 150 nM

Compound: Cc1ccc(S(=O)(=O)NC(=O)COc2cccc3c2c(C(=O)C(N)=O)c(C)n3Cc2ccccc2)cc1 [ILY-IV-26, 1-Benzyl-2-methyl-4-p-toluenesulfonamidoylmethyloxy-1H-indol-3-glyoxylamide]
- IC50 [1]: 3090 nM
- IC50 [2, 4]: > 5000 nM
- IC50 [3]: 80 nM

Compound: CCC(Oc1cccc2c1c(C(=O)C(N)=O)c(C)n2Cc1ccccc1)C(=O)O (stereo not drawn) [ILY-IV-20, 2-(3-Aminooxalyl-1-benzyl-2-methyl-1H-indol-4-yloxy)-butyric acid]
- IC50 [1]: < 20 nM
- IC50 [2]: 180 nM
- IC50 [3]: < 20 nM

Compound: COc1cccc(Cn2c(C)c(C(=O)C(N)=O)c3c(OCC(=O)O)cccc32)c1 [ILY-V-8]
- IC50 [1]: 970 nM
- IC50 [2, 4]: 3250 nM
- IC50 [3]: 40 nM

Compound: CCCCCCCCn1c(C)c(C(=O)C(N)=O)c2c(OCC(=O)O)cccc21 [ILY-V-2]
- IC50 [1]: 210 nM
- IC50 [2, 4]: 640 nM
- IC50 [3]: 30 nM

Compound: Cc1c(C(=O)C(N)=O)c2c(OC(F)(C(=O)O)C(F)(F)Br)cccc2n1Cc1ccccc1 (stereo not drawn) [ILY-IV-55, 2-(3-(2-amino-2-oxoacetyl)-1-benzyl-2-methyl-1H-indol-4-yloxy)-3-bromo-2,3,3-trifluoropropanoic acid]
- inhibition at 15 µM [1]: 42.6%
- inhibition at 15 µM ([2]; human pancreas secreted PLA2): 34%
- inhibition at 15 µM [3]: 74.5%
